Source: patent publication US8758816B2, “Compositions comprising azelastine and methods of use thereof” (priority 2004, dated 2014)
Where a name gives a salt, the structure may show the parent alone.

System: patients with seasonal allergic rhinitis (SAR)
Assay: MP 428 two-week randomized double-blind study: Total Nasal Symptom Score (TNSS), change from baseline
Assay type: in vivo, human
Design: key to Change from Baseline in AM TNSS, Mean / Change from Baseline in AM TNSS, LS Mean / Change from Baseline in AM TNSS, Median: TNSS sum of 4 symptoms each 0-3 (0=none, 3=severe); change from baseline
Experimental: A two-week, randomized, double-blind study, which evaluated the effects of the co-administration of ASTELIN® (azelastine hydrochloride (HCl)) and FLONASE® (fluticasone propionate) compared to either product alone in patients with seasonal allergic rhinitis (SAR) was conducted during the 2006 Texas mountain cedar season. After a 5-day placebo lead-in period, 151 patients with moderate-to-severe allergic rhinitis symptoms were randomized to either: (1) (49 total patients) ASTELIN® (azelastine hydrochloride (HCl)) plus placebo saline nasal spray 2 sprays per nostril, 15 minutes apart, twice daily (AM & PM); (2) (50 total patients) FLONASE® (fluticasone propionate) plus placebo saline nasal spray, 2 sprays per nostril, 15 minutes apart, once daily (AM) and two sessions of placebo saline nasal spray, 2 sprays per nostril, 15 minutes apart (PM); or (3) (52 total patients) the co-administration of ASTELIN® (azelastine hydrochloride (HCl)) 2 sprays per nostril plus FLONASE® (fluticasone propionate) 2 sprays per nostril (AM), 15 minutes apart, and ASTELIN® (azelastine hydrochloride (HCl)) 2 sprays per nostril plus placebo saline nasal spray, 15 minutes apart, (PM) for a 2-week double-blind treatment period.
The primary efficacy variable was the change from baseline in the Total Nasal Symptom Score (TNSS), which comprised sneezing, itchy nose, runny nose, and nasal congestion (individual symptoms scores were assigned a value between 0 and 3, where 0=no symptoms and 3=severe symptoms). This study was not statistically designed to assess the differences between ASTELIN® and FLONASE®.

[1] = Day 5, Intent-to-Treat Population
[2] = Day 6, Intent-to-Treat Population
[3] = Day 7, Intent-to-Treat Population
[4] = Day 8, Intent-to-Treat Population
[5] = Day 9, Intent-to-Treat Population

## CN1CCCC(n2nc(Cc3ccc(Cl)cc3)c3ccccc3c2=O)CC1 (racemic) [Azelastine, (±)-1-(2H)-phthalazinone, 4-[(4-chlorophenyl)methyl]-2-(hexahydro-1-methyl-1H-azepin-4-yl)-, mono-hydrochloride]
[1]
  Percent Change from Baseline in AM and PM Combined TNSS, Mean: −23.15%
  Percent Change from Baseline in AM and PM Combined TNSS, Median: −18.64%
  Percent Change from Baseline in PM TNSS, LS Mean: −22.87%
  Percent Change from Baseline in PM TNSS, Mean: −22.50%
  Percent Change from Baseline in PM TNSS, Median: −13.04%
Day 5, Intent-to-Treat Population, ANCOVA model
  Change from Baseline in AM and PM Combined TNSS, LS Mean: −4.46
Day 5, Per-Protocol Population
  Change from Baseline in AM and PM Combined TNSS, LS Mean: −4.43
  Change from Baseline in AM and PM Combined TNSS, Mean: −4.48
  Change from Baseline in AM and PM Combined TNSS, Median: −3.67
  Percent Change from Baseline in AM and PM Combined TNSS, LS Mean: −23.17%
  Percent Change from Baseline in AM and PM Combined TNSS, Mean: −23.15%
  Percent Change from Baseline in AM and PM Combined TNSS, Median: −18.64%
[2]
  Change from Baseline in AM TNSS, LS Mean: −2.01
  Change from Baseline in AM TNSS, Mean: −2.01
  Change from Baseline in AM TNSS, Median: −2.00
  Change from Baseline in AM and PM Combined TNSS, Mean: −4.44
  Change from Baseline in AM and PM Combined TNSS, Median: −3.70
  Change from Baseline in PM TNSS, LS Mean: −2.38
  Change from Baseline in PM TNSS, Mean: −2.43
  Change from Baseline in PM TNSS, Median: −2.00
  Percent Change from Baseline in AM TNSS, LS Mean: −21.14%
  Percent Change from Baseline in AM TNSS, Mean: −21.35%
  Percent Change from Baseline in AM TNSS, Median: −16.67%
  Percent Change from Baseline in AM and PM Combined TNSS, LS Mean: −23.15%
  Percent Change from Baseline in AM and PM Combined TNSS, Mean: −23.13%
  Percent Change from Baseline in AM and PM Combined TNSS, Median: −18.78%
  Percent Change from Baseline in PM TNSS, LS Mean: −25.18%
  Percent Change from Baseline in PM TNSS, Mean: −24.82%
  Percent Change from Baseline in PM TNSS, Median: −20.45%
Day 6, Intent-to-Treat Population, ANCOVA model
  Change from Baseline in AM and PM Combined TNSS, LS Mean: −4.40
Day 6, Per-Protocol Population
  Change from Baseline in AM and PM Combined TNSS, LS Mean: −4.38
  Change from Baseline in AM and PM Combined TNSS, Mean: −4.44
  Change from Baseline in AM and PM Combined TNSS, Median: −3.70
  Percent Change from Baseline in AM and PM Combined TNSS, LS Mean: −23.16%
  Percent Change from Baseline in AM and PM Combined TNSS, Mean: −23.13%
  Percent Change from Baseline in AM and PM Combined TNSS, Median: −18.78%
[3]
  Change from Baseline in AM TNSS, LS Mean: −2.52
  Change from Baseline in AM TNSS, Mean: −2.52
  Change from Baseline in AM TNSS, Median: −2.20
  Change from Baseline in AM and PM Combined TNSS, Mean: −5.09
  Change from Baseline in AM and PM Combined TNSS, Median: −4.67
  Change from Baseline in PM TNSS, LS Mean: −2.54
  Change from Baseline in PM TNSS, Mean: −2.57
  Change from Baseline in PM TNSS, Median: −2.25
  Percent Change from Baseline in AM TNSS, LS Mean: −26.26%
  Percent Change from Baseline in AM TNSS, Mean: −26.58%
  Percent Change from Baseline in AM TNSS, Median: −25.00%
  Percent Change from Baseline in AM and PM Combined TNSS, LS Mean: −26.40%
  Percent Change from Baseline in AM and PM Combined TNSS, Mean: −26.52%
  Percent Change from Baseline in AM and PM Combined TNSS, Median: −23.31%
  Percent Change from Baseline in PM TNSS, LS Mean: −26.39%
  Percent Change from Baseline in PM TNSS, Mean: −26.20%
  Percent Change from Baseline in PM TNSS, Median: −23.81%
Day 7, Intent-to-Treat Population, ANCOVA model
  Change from Baseline in AM and PM Combined TNSS, LS Mean: −5.05
Day 7, Per-Protocol Population
  Change from Baseline in AM and PM Combined TNSS, LS Mean: −5.01
  Change from Baseline in AM and PM Combined TNSS, Mean: −5.09
  Change from Baseline in AM and PM Combined TNSS, Median: −4.67
  Percent Change from Baseline in AM and PM Combined TNSS, LS Mean: −26.32%
  Percent Change from Baseline in AM and PM Combined TNSS, Mean: −26.52%
  Percent Change from Baseline in AM and PM Combined TNSS, Median: −23.31%
[4]
  Change from Baseline in AM TNSS, LS Mean: −2.65
  Change from Baseline in AM TNSS, Mean: −2.62
  Change from Baseline in AM TNSS, Median: −2.50
  Change from Baseline in AM and PM Combined TNSS, Mean: −5.38
  Change from Baseline in AM and PM Combined TNSS, Median: −5.00
  Change from Baseline in PM TNSS, LS Mean: −2.69
  Change from Baseline in PM TNSS, Mean: −2.76
  Change from Baseline in PM TNSS, Median: −2.75
  Percent Change from Baseline in AM TNSS, LS Mean: −27.73%
  Percent Change from Baseline in AM TNSS, Mean: −27.83%
  Percent Change from Baseline in AM TNSS, Median: −25.00%
  Percent Change from Baseline in AM and PM Combined TNSS, LS Mean: −28.22%
  Percent Change from Baseline in AM and PM Combined TNSS, Mean: −28.13%
  Percent Change from Baseline in AM and PM Combined TNSS, Median: −23.73%
  Percent Change from Baseline in PM TNSS, LS Mean: −27.94%
  Percent Change from Baseline in PM TNSS, Mean: −28.17%
  Percent Change from Baseline in PM TNSS, Median: −27.27%
Day 8, Intent-to-Treat Population, ANCOVA model
  Change from Baseline in AM and PM Combined TNSS, LS Mean: −5.37
Day 8, Per-Protocol Population
  Change from Baseline in AM and PM Combined TNSS, LS Mean: −5.33
  Change from Baseline in AM and PM Combined TNSS, Mean: −5.38
  Change from Baseline in AM and PM Combined TNSS, Median: −5.00
  Percent Change from Baseline in AM and PM Combined TNSS, LS Mean: −28.14%
  Percent Change from Baseline in AM and PM Combined TNSS, Mean: −28.13%
  Percent Change from Baseline in AM and PM Combined TNSS, Median: −23.73%
[5]
  Change from Baseline in AM TNSS, LS Mean: −2.57
  Change from Baseline in AM TNSS, Mean: −2.52
